Test results as given in patent US9145354B2, “Pharmaceutical compounds” (priority 2011, dated 2015).
Where two headings read alike, the source gives them in different places.

Key:
[1] = test system: HCV subgenomic replicon in Huh-7 cells; experiment: Replicon Assay (Example B), luciferase readout EC50; format: cell-based; conditions: replicon assay, luciferase readout; upper value of the cell pair; read-out: Assay B EC50
Protocol: The activities of compounds of the invention against HCV in a cellular environment were analysed using a replicon assay as described below.
Thus, Huh-7 cells persistently infected with an HCV-RNA construct (Bartenschlager, R. Hepatitis C replicons: potential role for drug development. Nature Rev. Drug Discov. 1, 911-916 (2002)) comprising: 5′ and 3′ non-translated regions (NTR); the non-structural genes NS3 to NS5b; as well as the G418 drug resistance gene, neomycin, (for selection of cells carrying HCV replicon RNA) fused to the firefly Luciferase reporter gene (pFKI3889Iuc-ubi-neo/NS3-3′/ET) were used to determine the cell based antiviral activity of compounds using luciferase activity as an indirect readout of HCV RNA load. In this assay […] huh-7 cells persistently infected with the HCV subgenomic replicon construct above were plated/well in a 96 well tissue culture plate. The cells were allowed to attach overnight in DMEM medium supplemented with 10% FBS 1% NEAA, and 250 μg/ml gentamicin. The following day the medium was replaced with 200 μl/well of fresh medium as described above lacking gentamicin. Semilog dilutions of compounds in medium were then added to triplicate wells (non-edge) of the cultured cells to give a 0.1% DMSO final concentration. Plates were then incubated at 37° C. in an atmosphere of 5% CO2 and air for 72 h. […] The plate was then read at 535 nm (excitation) and 590 nm (emission) on a SpectraMax Gemini reader (Molecular Devices) to determine the number of viable cells by measuring the conversion of rezasurin (Alamar blue) to resorufin in response to mitochondrial activity. In order to determine the antiviral effect of these compounds EC50 values were determined by measuring the luciferase activity of the cells. Alamar blue solution was removed from the wells and replaced with 100 μl/well of medium along with 100 μl/well of Bright-Glo reagent and incubated at room temperature for 5 minutes before transferring 100 μl/well to a white bottom 96 well plate to read in a luminometer as described in the Bright-Glo Luciferase Assay System protocol (promega).

full length NS3/4a = full length NS3/4a (Hepatitis C virus genotype 1b (isolate BK) (HCV), UniProt P26663); experiment: NS3 Protease Assay (Example A), FRET-based; format: biochemical
Chain of full length NS3/4a (P26663 1027-1657): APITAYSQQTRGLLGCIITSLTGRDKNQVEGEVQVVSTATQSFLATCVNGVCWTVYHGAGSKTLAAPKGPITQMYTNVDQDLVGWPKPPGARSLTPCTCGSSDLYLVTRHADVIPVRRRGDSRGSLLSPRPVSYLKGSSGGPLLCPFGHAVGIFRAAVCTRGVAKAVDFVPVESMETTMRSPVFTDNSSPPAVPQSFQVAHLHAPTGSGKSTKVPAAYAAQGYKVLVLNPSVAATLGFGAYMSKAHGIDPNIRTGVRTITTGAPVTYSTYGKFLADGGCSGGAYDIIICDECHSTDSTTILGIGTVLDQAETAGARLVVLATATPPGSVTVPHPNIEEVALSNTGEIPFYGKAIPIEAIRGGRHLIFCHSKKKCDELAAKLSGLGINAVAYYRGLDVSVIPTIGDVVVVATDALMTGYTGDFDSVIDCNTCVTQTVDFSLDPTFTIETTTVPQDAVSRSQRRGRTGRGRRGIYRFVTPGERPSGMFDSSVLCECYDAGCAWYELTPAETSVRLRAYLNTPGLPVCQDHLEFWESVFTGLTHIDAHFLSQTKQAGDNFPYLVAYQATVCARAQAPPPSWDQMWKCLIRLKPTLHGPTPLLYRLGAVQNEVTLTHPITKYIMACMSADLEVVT
Method in brief: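 Initial rates were taken from fluorescence progress curves over 30 min at room temperature, and IC50 was fitted across replicates. In-house full-length NS3/4a cleaved a FRET peptide (5-FAMsp/QXL520) from the NS4A/B site. Medium: 50 mM Tris pH8, 20 mM DTT, 1% CHAPS, 10% glycerol, 5% DMSO.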

[2] = HCV NS3 protease assay, full length NS3/4a, read-out: Assay A IC50 (μM) average
[3] = stated as IC50 less than 30 μM or at least 40% inhibition at a concentration of 100 μM, read-out: IC50 against the protease activity of the full length NS3/4a
[4] = read-out: IC50 against the protease activity of the full length NS3/4a

Compound: CCC(NC1CCCC1C(N)=O)c1ccc(Cl)c(C(=O)c2ccc(N)nc2)c1F (racemic) [Example 125, 2-{[1-{3-[(6-aminopyridin-3-yl)carbonyl]-4-chloro-2-fluorophenyl}propyl]amino} cyclopentane-1-carboxamide]
- EC50 [1]: 0.079 µM

Compound: CCC(NC1CCCC1C(N)=O)c1ccc(Cl)c(C(=O)c2ccc(N)nc2)c1F (racemic) [Example 127, 2-{[1-{3-[(6-aminopyridin-3-yl)carbonyl]-4-chloro-2-fluorophenyl}propyl]amino} cyclopentane-1-carboxamide]
- EC50 [1]: > 10 µM

Compound: C[C@H](CC(N)=O)N[C@H](CC1CC1)c1ccc(Cl)c(C(=O)c2ccc(N)nc2)c1F [Example 279, (3R)-3-{[(1R)-1-{3-[(6-aminopyridin-3-yl)carbonyl]-4-chloro-2-fluorophenyl}-2-cyclopropylethyl]amino}butanamide]
- IC50 (full length NS3/4a; [2]): 0.39 µM

Compound: C[C@@H](CC(N)=O)NCc1ccc(Cl)c(C(=O)c2ccccc2)c1F [Example 281, (3S)-3-{[(3-benzoyl-4-chloro-2-fluorophenyl)methyl]amino}butanamide]
- IC50 (full length NS3/4a; [2]): 0.45 µM

Compound: CC[C@@H](NC1CCOCC1)c1ccc(Cl)c(C(=O)c2cccnc2)c1F [Example 283, N-[(1R)-1-{4-chloro-2-fluoro-3-[(pyridin-3-yl)carbonyl]phenyl}propyl]oxan-4-amine]
- IC50 (full length NS3/4a; [3]): < 30 µM

Compound: CC[C@@H](NCC1CC1)c1ccc(Cl)c(C(=O)c2cccnc2)c1F [Example 284]
- IC50 (full length NS3/4a; [2]): 2.7 µM
- IC50 (full length NS3/4a; [4]): 1 to 5 µM

Compound: CC[C@@H](NC(C)C)c1ccc(Cl)c(C(=O)c2cccnc2)c1F [Example 285, [(1R)-1-{4-chloro-2-fluoro-3-[(pyridin-3-yl)carbonyl]phenyl}propyl] (propan-2-yl)amine]
- IC50 (full length NS3/4a; [2]): 2 µM
- IC50 (full length NS3/4a; [4]): 1 to 5 µM

Compound: CC[C@H](NC(=O)C1=CCNC1)c1ccc(Cl)c(C(=O)c2cccnc2)c1F [Example 286, N-[(1S)-1-{4-chloro-2-fluoro-3-[(pyridin-3-yl)carbonyl]phenyl}propyl]-2,5-dihydro-1H-pyrrole-3-carboxamide]
- IC50 (full length NS3/4a; [2]): 0.13 µM
- IC50 (full length NS3/4a; [4]): < 1 µM

Compound: CC[C@H](NC(=O)C1=CCCNC1)c1ccc(Cl)c(C(=O)c2cccnc2)c1F [Example 287, N-[(1S)-1-{4-chloro-2-fluoro-3-[(pyridin-3-yl)carbonyl]phenyl}propyl]-1,2,5,6-tetrahydropyridine-3-carboxamide]
- IC50 (full length NS3/4a; [2]): 0.14 µM
- IC50 (full length NS3/4a; [4]): < 1 µM

Compound: CC[C@@H](NCc1cnc[nH]1)c1ccc(Cl)c(C(=O)c2cccnc2)c1F [Example 288, [(1R)-1-{4-chloro-2-fluoro-3-[(pyridin-3-yl)carbonyl]phenyl}propyl](1H-imidazol-5-ylmethyl)amine]
- IC50 (full length NS3/4a; [2]): 1.4 µM
- IC50 (full length NS3/4a; [4]): 1 to 5 µM

Compound: CC[C@@H](NC)c1ccc(Cl)c(C(=O)c2cccnc2)c1F [Example 289, [(1R)-1-{4-chloro-2-fluoro-3-[(pyridin-3-yl)carbonyl]phenyl}propyl](methyl)amine]
- IC50 (full length NS3/4a; [2]): 2.4 µM
- IC50 (full length NS3/4a; [4]): 1 to 5 µM

Compound: CC[C@@H](NCCF)c1ccc(Cl)c(C(=O)c2cccnc2)c1F [Example 290, [(1R)-1-{4-chloro-2-fluoro-3-[(pyridin-3-yl)carbonyl]phenyl}propyl] (2-fluoroethyl)amine]
- IC50 (full length NS3/4a; [2]): 14 µM
- IC50 (full length NS3/4a; [3]): < 30 µM

Compound: CC[C@@H](NC(=O)C1=CCNC1)c1ccc(Cl)c(C(=O)c2cccnc2)c1F [Example 291, N-[(1R)-1-{4-chloro-2-fluoro-3-[(pyridin-3-yl)carbonyl]phenyl}propyl]-2,5-dihydro-1H-pyrrole-3-carboxamide]
- inhibition at 3 µM (full length NS3/4a): 51%
- IC50 (full length NS3/4a; [4]): 1 to 5 µM

Compound: CC[C@@H](N[C@@H]1CCOC1)c1ccc(Cl)c(C(=O)c2cccnc2)c1F [Example 292, (3R)-N-[(1R)-1-{4-chloro-2-fluoro-3-[(pyridin-3-yl)carbonyl]phenyl}propyl] oxolan-3-amine]
- inhibition at 10 µM (full length NS3/4a): 4%

Compound: CC[C@@H](N[C@H]1CCOC1)c1ccc(Cl)c(C(=O)c2cccnc2)c1F [Example 293, (3S)-N-[(1R)-1-{4-chloro-2-fluoro-3-[(pyridin-3-yl)carbonyl]phenyl}propyl] oxolan-3-amine]
- inhibition at 10 µM (full length NS3/4a): 11%

Compound: CC[C@H](NC(=O)C1CCCNC1)c1ccc(Cl)c(C(=O)c2cccnc2)c1F (stereo partly drawn) [Example 294, N-[(1S)-1-{4-chloro-2-fluoro-3-[(pyridin-3-yl)carbonyl]phenyl}propyl]piperidine-3-carboxamide]
- IC50 (full length NS3/4a; [2]): 0.41 µM
- IC50 (full length NS3/4a; [4]): < 1 µM

Compound: CC[C@H](NC(=O)C1CCNC1)c1ccc(Cl)c(C(=O)c2cccnc2)c1F (stereo partly drawn) [Example 295, N-[(1S)-1-{4-chloro-2-fluoro-3-[(pyridin-3-yl)carbonyl]phenyl}propyl] pyrrolidine-3-carboxamide]
- inhibition at 3 µM (full length NS3/4a): 38%

Compound: CC[C@@H](NC1CC1)c1ccc(Cl)c(C(=O)c2cccnc2)c1F [Example 296, N-[(1R)-1-{4-chloro-2-fluoro-3-[(pyridin-3-yl)carbonyl]phenyl}-propyl]cyclopropanamine]
- IC50 (full length NS3/4a; [2]): 13 µM
- IC50 (full length NS3/4a; [3]): < 30 µM

Compound: CC[C@H](NC(=O)CCN)c1ccc(Cl)c(C(=O)c2cccnc2)c1F [Example 297, 3-amino-N-[(1S)-1-{4-chloro-2-fluoro-3-[(pyridin-3-yl)carbonyl]phenyl}propyl] propanamide]
- IC50 (full length NS3/4a; [2]): 0.15 µM
- IC50 (full length NS3/4a; [4]): < 1 µM

Compound: CC[C@H](NC(=O)C[C@@H](N)C(C)C)c1ccc(Cl)c(C(=O)c2cccnc2)c1F [Example 298, (3R)-3-amino-N-[(1S)-1-{4-chloro-2-fluoro-3-[(pyridin-3-yl)carbonyl]phenyl}propyl]-4-methylpentanamide]
- IC50 (full length NS3/4a; [2]): 0.064 µM
- IC50 (full length NS3/4a; [4]): < 1 µM

Compound: CC[C@@H](NCc1cn[nH]c1)c1ccc(Cl)c(C(=O)c2cccnc2)c1F [Example 299, [(1R)-1-{4-chloro-2-fluoro-3-[(pyridin-3-yl)carbonyl]phenyl}propyl] (1H-pyrazol-4-ylmethyl)amine]
- inhibition at 10 µM (full length NS3/4a): 32%

Compound: CC[C@@H](N[C@H](C)c1cn[nH]c1)c1ccc(Cl)c(C(=O)c2cccnc2)c1F [Example 300, [(1R)-1-{4-chloro-2-fluoro-3-[(pyridin-3-yl)carbonyl]phenyl}propyl] [(1R)-1-(1H-pyrazol-4-yl)ethyl]amine]
- inhibition at 30 µM (full length NS3/4a; @ 30 uM): 48%
- IC50 (full length NS3/4a; [3]): < 30 µM

Compound: CC[C@@H](N[C@@H](C)c1cn[nH]c1)c1ccc(Cl)c(C(=O)c2cccnc2)c1F [Example 301, [(1R)-1-{4-chloro-2-fluoro-3-[(pyridin-3-yl)carbonyl]phenyl}propyl] [(1S)-1-(1H-pyrazol-4-yl)ethyl]amine]
- inhibition at 10 µM (full length NS3/4a): 65%
- IC50 (full length NS3/4a; [3]): < 30 µM

Compound: CC[C@H](NC(=N)N)c1ccc(Cl)c(C(=O)c2cccnc2)c1F [Example 302]
- IC50 (full length NS3/4a; [2]): 1.3 µM
- IC50 (full length NS3/4a; [4]): 1 to 5 µM

Compound: CC[C@H](NC(=O)CCN)c1ccc(Cl)c(C(=O)c2ccc(N)nc2)c1F [Example 303]
- IC50 (full length NS3/4a; [2]): 0.065 µM
- IC50 (full length NS3/4a; [4]): < 1 µM

Compound: CC[C@@H](N[C@H](C)c1cnc[nH]1)c1ccc(Cl)c(C(=O)c2cccnc2)c1F [Example 304, [(1R)-1-{4-chloro-2-fluoro-3-[(pyridin-3-yl)carbonyl]phenyl}propyl] [(1R)-1-(1H-imidazol-5-yl)ethyl]amine]
- IC50 (full length NS3/4a; [2]): 4.7 µM
- IC50 (full length NS3/4a; [4]): 1 to 5 µM

Compound: CC[C@@H](N[C@@H](C)c1cnc[nH]1)c1ccc(Cl)c(C(=O)c2cccnc2)c1F [Example 305, [(1R)-1-{4-chloro-2-fluoro-3-[(pyridin-3-yl)carbonyl]phenyl}propyl] [(1S)-1-(1H-imidazol-5-yl)ethyl]amine]
- IC50 (full length NS3/4a; [2]): 1.1 µM
- IC50 (full length NS3/4a; [4]): 1 to 5 µM

Compound: CC[C@@H](NCCn1cccn1)c1ccc(Cl)c(C(=O)c2cccnc2)c1F [Example 306, [(1R)-1-{4-chloro-2-fluoro-3-[(pyridin-3-yl)carbonyl]phenyl}propyl] [2-(1H-pyrazol-1-yl)ethyl] amine]
- inhibition at 100 µM (full length NS3/4a; @ 100 uM): 59%
- IC50 (full length NS3/4a; [3]): < 30 µM

Compound: CC[C@@H](NC)c1ccc(Cl)c(C(=O)c2ccc(N)nc2)c1F [Example 307, 5-({6-chloro-2-fluoro-3-[(1R)-1-(methylamino)propyl]-phenyl}carbonyl)pyridin-2-amine]
- IC50 (full length NS3/4a; [2]): 0.34 µM
- IC50 (full length NS3/4a; [4]): < 1 µM

Compound: (3S)-3-{[(1R)-1-{3-[(6- aminopyridazin-3- yl)carbonyl]-4-chloro-2- fluorophenyl}propyl]amino} butanamide [Example 232]
- IC50 (full length NS3/4a; [2]): 0.99 µM
- IC50 (full length NS3/4a; [4]): < 1 µM
